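How tested: cells in 96-well plates exposed to compound for 48 hours at five concentrations. GI50 = concentration required for 50% inhibition of growth. At the TGI there is no net growth.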
Tests used:
Assay in all cases: growth of human tumour cells (NCI), 48 h
[1] = tested on: 786-0 renal
[2] = tested on: A498 renal
[3] = tested on: A549 NSCLC
[4] = tested on: ACHN renal
[5] = tested on: BT-549 breast
[6] = tested on: CAKI-1 renal
[7] = tested on: CCRF-CEM leukemia
[8] = tested on: COLO 205 colon
[9] = tested on: DU-145 prostate
[10] = tested on: EKVX NSCLC
[11] = tested on: HCC-2998 colon
[12] = tested on: HCT-116 colon
[13] = tested on: HCT-15 colon
[14] = tested on: HL-60(TB) leukemia
[15] = tested on: HOP-62 NSCLC
[16] = tested on: HOP-92 NSCLC
[17] = tested on: HS 578T breast
[18] = tested on: HT29 colon
[19] = tested on: IGROV1 ovarian
[20] = tested on: K-562 leukemia
[21] = tested on: KM12 colon
[22] = tested on: LOX IMVI melanoma
[23] = tested on: M14 melanoma
[24] = tested on: MALME-3M melanoma
[25] = tested on: MCF7 breast
[26] = tested on: MDA-MB-231 breast
[27] = tested on: MDA-MB-435
[28] = tested on: MDA-MB-468 breast
[29] = tested on: MOLT-4 leukemia
[30] = tested on: NCI-H226 lung
[31] = tested on: NCI-H23 lung
[32] = tested on: NCI-H460 lung
[33] = tested on: NCI-H522 lung
[34] = tested on: NCI/ADR-RES ovarian
[35] = tested on: OVCAR-3 ovarian
[36] = tested on: OVCAR-4 ovarian
[37] = tested on: OVCAR-5 ovarian
[38] = tested on: OVCAR-8 ovarian
[39] = tested on: PC-3 prostate
[40] = tested on: RPMI-8226 leukemia
[41] = tested on: RXF 393 renal
[42] = tested on: SF-268 CNS
[43] = tested on: SF-295 CNS
[44] = tested on: SF-539 CNS
[45] = tested on: SK-MEL-2 melanoma
[46] = tested on: SK-MEL-28 melanoma
[47] = tested on: SK-MEL-5 melanoma
[48] = tested on: SK-OV-3 ovarian
[49] = tested on: SN12C renal
[50] = tested on: SNB-19 CNS
[51] = tested on: SNB-75 CNS
[52] = tested on: SR leukemia
[53] = tested on: SW-620 colon
[54] = tested on: T-47D breast
[55] = tested on: TK-10 renal
[56] = tested on: U251 CNS
[57] = tested on: UACC-257 melanoma
[58] = tested on: UACC-62 melanoma
[59] = tested on: UO-31 renal

O=C(COc1ccc(NC(=O)Nc2ccc(Cl)c(Cl)c2)cc1)N=Nc1c(O)[nH]c2ccc(Br)cc12
TGI [1]: 0.92 µM
GI50 [2]: 1.56 µM
TGI [2]: 3.79 µM
GI50 [3]: 2.06 µM
TGI [3]: 5 µM
GI50 [4]: 2.94 µM
TGI [4]: 9.12 µM
GI50 [5]: 0.0288 µM
TGI [5]: 2.23 µM
GI50 [6]: 2.05 µM
TGI [6]: 4.3 µM
GI50 [7]: 0.812 µM
TGI [7]: 6.13 µM
GI50 [8]: 1.83 µM
TGI [8]: 3.31 µM
GI50 [9]: 3.07 µM
TGI [9]: 9.52 µM
GI50 [10]: 2.37 µM
TGI [10]: 7.06 µM
GI50 [11]: 1.82 µM
TGI [11]: 3.89 µM
GI50 [12]: 0.166 µM
TGI [12]: 0.369 µM
GI50 [13]: 6.13 µM
TGI [13]: 45.5 µM
GI50 [14]: 2.02 µM
TGI [14]: 4.66 µM
GI50 [15]: 2.03 µM
TGI [15]: 3.95 µM
GI50 [16]: 1.93 µM
TGI [16]: 4.45 µM
GI50 [17]: 2.25 µM
TGI [17]: 6.71 µM
GI50 [18]: 1.86 µM
TGI [18]: 3.78 µM
GI50 [19]: 1.88 µM
TGI [19]: 3.92 µM
GI50 [20]: 1.26 µM
TGI [20]: 6.47 µM
GI50 [21]: 1.95 µM
TGI [21]: 4.12 µM
GI50 [22]: 1.09 µM
TGI [22]: 2.3 µM
GI50 [23]: 0.231 µM
TGI [23]: 0.634 µM
GI50 [24]: 1.64 µM
TGI [24]: 3.03 µM
GI50 [25]: 2.01 µM
TGI [25]: 4.71 µM
GI50 [26]: 1.81 µM
TGI [26]: 3.35 µM
GI50 [27]: 1.55 µM
TGI [27]: 3.25 µM
GI50 [28]: 1.75 µM
TGI [28]: 3.46 µM
GI50 [29]: 0.629 µM
TGI [29]: 2.69 µM
GI50 [30]: 1.98 µM
TGI [30]: 3.86 µM
GI50 [31]: 1.99 µM
TGI [31]: 3.99 µM
GI50 [32]: 1.6 µM
TGI [32]: 3.54 µM
GI50 [33]: 1.81 µM
TGI [33]: 3.62 µM
GI50 [34]: > 100 µM
TGI [34]: > 100 µM
GI50 [35]: 1.08 µM
TGI [35]: 3.13 µM
GI50 [36]: 1.9 µM
TGI [36]: 4.1 µM
GI50 [37]: 1.82 µM
TGI [37]: 3.89 µM
GI50 [38]: 2.34 µM
TGI [38]: 5.42 µM
GI50 [39]: 1.15 µM
TGI [39]: 3.44 µM
GI50 [40]: 2.19 µM
TGI [40]: 6.37 µM
GI50 [41]: 1.52 µM
TGI [41]: 3.04 µM
GI50 [42]: 1.63 µM
TGI [42]: 5.15 µM
GI50 [43]: 1.63 µM
TGI [43]: 3.2 µM
GI50 [44]: 1.66 µM
TGI [44]: 3.12 µM
GI50 [45]: 1.97 µM
TGI [45]: 4.27 µM
GI50 [46]: 1.83 µM
TGI [46]: 3.43 µM
GI50 [47]: 1.7 µM
TGI [47]: 3.09 µM
GI50 [48]: 2.08 µM
TGI [48]: 4.29 µM
GI50 [49]: 1.82 µM
TGI [49]: 3.45 µM
GI50 [50]: 2.68 µM
TGI [50]: 8.42 µM
GI50 [51]: 1.33 µM
TGI [51]: 2.84 µM
GI50 [52]: 2.55 µM
TGI [52]: 7.98 µM
GI50 [53]: 1.46 µM
TGI [53]: 3.06 µM
GI50 [54]: 1.96 µM
TGI [54]: 4.57 µM
GI50 [55]: 2.46 µM
TGI [55]: 7.79 µM
GI50 [56]: 1.71 µM
TGI [56]: 3.39 µM
GI50 [57]: 1.79 µM
TGI [57]: 3.56 µM
GI50 [58]: 1.85 µM
TGI [58]: 3.77 µM
GI50 [59]: 11.5 µM
TGI [59]: 45.9 µM

N#CC1=C(c2cccs2)Nc2c(c(-c3ccccc3)nn2-c2ccccc2)C12C(=O)Nc1ccc(Cl)cc12 (stereo not drawn)
GI50 [1]: 6.43 µM
TGI [1]: 20.6 µM
GI50 [2]: 16.8 µM
TGI [2]: 31.2 µM
GI50 [3]: 4.12 µM
TGI [3]: 15.9 µM
GI50 [4]: 4.05 µM
TGI [4]: 14.8 µM
GI50 [5]: 3.02 µM
TGI [5]: 13.1 µM
GI50 [6]: 5.26 µM
TGI [6]: 18.6 µM
GI50 [7]: 3.35 µM
TGI [7]: 20.7 µM
GI50 [8]: 14.3 µM
TGI [8]: 29.5 µM
GI50 [9]: 13.9 µM
TGI [9]: 30.3 µM
GI50 [10]: 4.33 µM
TGI [10]: 18 µM
GI50 [11]: 7.13 µM
TGI [11]: 19.8 µM
GI50 [12]: 3.95 µM
TGI [12]: 16.3 µM
GI50 [13]: 3.74 µM
TGI [13]: 14.1 µM
GI50 [14]: 3.51 µM
TGI [14]: 11.7 µM
GI50 [15]: 7.02 µM
TGI [15]: 21.4 µM
GI50 [16]: 2.47 µM
TGI [16]: 7.94 µM
GI50 [17]: 3.22 µM
TGI [17]: 18.6 µM
GI50 [18]: 4.82 µM
TGI [18]: 17.1 µM
GI50 [19]: 4.93 µM
TGI [19]: 17.7 µM
GI50 [20]: 4.46 µM
TGI [20]: 34.1 µM
GI50 [21]: 3.66 µM
TGI [21]: 13.6 µM
GI50 [22]: 6.46 µM
TGI [22]: 20.4 µM
GI50 [23]: 4.94 µM
TGI [23]: 18.4 µM
GI50 [24]: 14.3 µM
TGI [24]: 27.4 µM
GI50 [25]: 4.95 µM
TGI [25]: 19.4 µM
GI50 [26]: 4.52 µM
TGI [26]: 16.9 µM
GI50 [27]: 11.1 µM
TGI [27]: 23.9 µM
GI50 [28]: 4.45 µM
TGI [28]: 16.6 µM
GI50 [29]: 4.95 µM
TGI [29]: 23.4 µM
GI50 [30]: 11.6 µM
TGI [30]: 28.2 µM
GI50 [31]: 5.57 µM
TGI [31]: 18.2 µM
GI50 [32]: 4.07 µM
TGI [32]: 14.1 µM
GI50 [33]: 2.6 µM
TGI [33]: 9.87 µM
GI50 [35]: 6.88 µM
TGI [35]: 19.7 µM
GI50 [36]: 4.77 µM
TGI [36]: 21.1 µM
GI50 [37]: 7.31 µM
TGI [37]: 20.9 µM
GI50 [38]: 4.92 µM
TGI [38]: 17.9 µM
GI50 [39]: 3.18 µM
TGI [39]: 15.2 µM
GI50 [40]: 4.3 µM
TGI [40]: 27.5 µM
GI50 [41]: 3.14 µM
TGI [41]: 13.3 µM
GI50 [42]: 3.52 µM
TGI [42]: 19 µM
GI50 [43]: 3.74 µM
TGI [43]: 15.9 µM
GI50 [44]: 4.77 µM
TGI [44]: 17 µM
GI50 [45]: 3.97 µM
TGI [45]: 14.6 µM
GI50 [46]: 11.1 µM
TGI [46]: 23.2 µM
GI50 [47]: 10.8 µM
TGI [47]: 23.1 µM
GI50 [48]: 10.6 µM
TGI [48]: 23.6 µM
GI50 [49]: 4.46 µM
TGI [49]: 16.8 µM
GI50 [50]: 3.12 µM
TGI [50]: 14.2 µM
GI50 [51]: 2.6 µM
TGI [51]: 13 µM
GI50 [52]: 4.93 µM
TGI [52]: 36.3 µM
GI50 [53]: 4.56 µM
TGI [53]: 16.6 µM
GI50 [54]: 5.84 µM
TGI [54]: 33.8 µM
GI50 [55]: 5.81 µM
TGI [55]: 20.5 µM
GI50 [56]: 3.88 µM
TGI [56]: 14.4 µM
GI50 [57]: 12.9 µM
TGI [57]: 25.8 µM
GI50 [58]: 4.13 µM
TGI [58]: 16.9 µM
GI50 [59]: 2.54 µM
TGI [59]: 12.2 µM
